Measured values as given in patent publication US12590123B2, “Compounds and methods for treating cancer, viral infections, and allergic conditions” (Washington University, priority 2019, dated 2026).

Experiments:
Assay type in all cases: biochemical
[1] = molecular target: T1, recombinant HGFA serine protease domain (Homo sapiens, UniProt Q04756); assay: Fluorescent kinetic enzyme assay of HGFA activity (Boc-QLR-AMC); conditions: Table 2; read-out: HGFA (IC50 nM)
T1 construct: His6 tag (N); seven amino acid spacer plus TEV cleavage site (N); made in house; host or cells: High 5 insect cells (baculovirus; Sf9 for virus production)
T1 sequence (Q04756 373-655): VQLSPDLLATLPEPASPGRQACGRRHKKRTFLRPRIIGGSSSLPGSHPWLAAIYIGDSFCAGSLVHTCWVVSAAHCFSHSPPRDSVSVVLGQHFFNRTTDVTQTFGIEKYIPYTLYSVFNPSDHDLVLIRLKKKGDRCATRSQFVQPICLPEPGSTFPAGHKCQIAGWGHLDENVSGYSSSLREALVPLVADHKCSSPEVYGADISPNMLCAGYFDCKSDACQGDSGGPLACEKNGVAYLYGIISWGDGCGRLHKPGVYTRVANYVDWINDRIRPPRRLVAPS
Outline: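 His-tagged HGFA protease domain from baculovirus-infected High 5 cells, 6.25 nM in pH 8 Tris/NaCl/5 mM CaCl2/0.01% Triton X-100 with 2% DMSO. IC50 from four-parameter velocity fit (≥3 runs); apparent Ki by Cheng–Prusoff.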

matriptase = molecular target: T2, matriptase (Homo sapiens, UniProt Q9Y5Y6); assay: Fluorescent kinetic enzyme assay of matriptase activity (Boc-QAR-AMC); conditions: Table 2; read-out: Matriptase (IC50 nM)
T2 construct: purchased R&D Systems 3946-SE-010
T2 sequence (Q9Y5Y6 615-855 limits assumed): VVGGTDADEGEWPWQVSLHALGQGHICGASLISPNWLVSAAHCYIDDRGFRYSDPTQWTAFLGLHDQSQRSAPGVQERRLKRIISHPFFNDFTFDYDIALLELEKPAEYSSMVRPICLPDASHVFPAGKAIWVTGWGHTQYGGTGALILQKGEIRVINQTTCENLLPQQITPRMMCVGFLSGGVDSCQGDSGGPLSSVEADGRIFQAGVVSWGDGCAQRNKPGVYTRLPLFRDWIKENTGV
Description: After thirty minutes of incubation at room temperature, Boc-QLR-AMC substrate was added (HGFA assay) or Boc-QAR-AMC substrate (matriptase, and hepsin assays). […] From a plot of the mean reaction velocity versus the inhibitor concentration, a non-linear four parameter curve fit was performed using GraphPad Prism (GraphPad Software, San Diego, CA) to determine inhibitor IC50s. The IC50 values were determined from the average of three or more separate experimental determinations. Apparent Ki values were calculated using the Cheng and Prusoff equation (Ki=IC50/(1+[S]/Km).
Inhibitors were pre-incubated with protease followed by the addition of the substrate. Inhibition of substrate proteolysis derived fluorescence was monitored kinetically over a period of one hour.

activated hepsin = molecular target: T3, activated hepsin (Homo sapiens, UniProt P05981); assay: Fluorescent kinetic enzyme assay of hepsin activity (Boc-QAR-AMC); conditions: Table 2; read-out: Hepsin (IC50 nM)
T3 construct: purchased R&D Systems 4776-SE-010
T3 sequence (P05981 163-417 limits assumed): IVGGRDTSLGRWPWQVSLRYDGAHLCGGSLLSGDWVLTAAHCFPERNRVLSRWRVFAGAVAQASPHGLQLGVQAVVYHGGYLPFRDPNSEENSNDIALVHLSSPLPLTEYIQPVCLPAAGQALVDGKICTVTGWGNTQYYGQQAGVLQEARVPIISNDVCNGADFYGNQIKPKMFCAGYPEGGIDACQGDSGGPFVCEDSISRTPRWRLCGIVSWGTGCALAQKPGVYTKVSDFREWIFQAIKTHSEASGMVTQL
T3 sequence (P05981 1-162 partner limits assumed): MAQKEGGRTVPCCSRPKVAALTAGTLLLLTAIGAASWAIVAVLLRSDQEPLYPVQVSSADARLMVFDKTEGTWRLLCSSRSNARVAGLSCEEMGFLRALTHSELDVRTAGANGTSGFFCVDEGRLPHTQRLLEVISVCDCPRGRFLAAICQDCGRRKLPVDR

Factor Xa = Factor Xa (Homo sapiens, UniProt P00742); assay: Chromogenic kinetic enzyme assay of Factor Xa (S2222); conditions: Table 2; chromogenic assay; read-out: Factor Xa* (IC50 nM)
Sequence of Factor Xa (P00742 235-488 limits assumed): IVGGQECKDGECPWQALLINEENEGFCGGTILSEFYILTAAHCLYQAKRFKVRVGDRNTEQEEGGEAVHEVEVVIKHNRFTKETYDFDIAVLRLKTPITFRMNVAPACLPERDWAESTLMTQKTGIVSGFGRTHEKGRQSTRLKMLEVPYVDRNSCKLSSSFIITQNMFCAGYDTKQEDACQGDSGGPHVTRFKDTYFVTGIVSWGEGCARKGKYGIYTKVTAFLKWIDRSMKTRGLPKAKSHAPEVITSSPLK
Sequence of Factor Xa (P00742 41-179 partner limits assumed): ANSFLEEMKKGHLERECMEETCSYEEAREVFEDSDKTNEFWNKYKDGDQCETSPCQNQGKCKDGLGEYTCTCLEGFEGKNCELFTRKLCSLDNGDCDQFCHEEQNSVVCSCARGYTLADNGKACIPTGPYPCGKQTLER

`CC(=O)N[C@H]1CC(=O)NCCCC[C@@H](C(=O)N[C@@H](CCCNC(=N)N)C(=O)c2nc3ccccc3s2)NC(=O)[C@H](Cc2ccccc2)NC1=O` [VD3112, (3S,6S,14S)-6-acetamido-N—((S)-1-(benzo[d]thiazol-2-yl)-5-guanidino-1-oxopentan-2-yl)-3-benzyl-2,5,8-trioxo-1,4,9-triazacyclotetradecane-14-carboxamide] showed an IC50 [1] of 3170 nM, an IC50 (matriptase) of 3.4 nM and an IC50 (activated hepsin) of 17.4 nM. The IC50 (Factor Xa) was 1530 nM.
